Test results published in US11331294B2, “Benzoquinone derivative E3330 in combination with chemotherapeutic agents for the treatment of bladder cancer” (Indiana University Research and Technology Corporation, priority 2007, dated 2022).

Experiments:
[1] = system: RP-B-01, RP-B-02 and T24 cell lines; experiment: Alamar blue combination study with cisplatin; type: cell-based, human; conditions: combined with increasing concentrations of cisplatin, 72 h
Procedure: FIGS. 30A-30C. […] RP-B-01, RP-B-02, and T24 cell lines were treated with increasing concentrations of cisplatin in combination with a single dose of either APX2009 or APX2014 as indicated (n=3±SE). Cell proliferation was normalized to Saline control and expressed as Fold Change. Combination index (CI) values calculated with Compusyn for combination of APX inhibitors and cisplatin. CI values indicated mainly additivity (0.95-1.2) to synergy (0.8-0.94).
Bladder cancer cell lines (BLCAb001 (RP-B-01) and BLCAb002 (RP-B-02) maintained in RPMI growth medium with 10% FBS were plated at 4,000 cells/well in poly-D-lysine treated 96-well clear bottom black plates and grown overnight in 5% CO2 at 37° C. Cells in monolayer were then treated with increasing concentrations of redox-specific inhibitor APX3330, APX2014 or APX2009 and serially diluted 1:2 in a 5-point dose scheme. For combination studies, cells were treated with both cisplatin and APX compounds to determine efficacy. After 72 hours, fresh RPMI medium with 5% FBS was exchanged, and a fluorescent metabolic indicator, Alamar Blue was added to each well at 10% final concentration. After a 4 hour incubation, plates were read on a Synergy H4 (Bio-Tek) plate reader. […]
APE1/Ref-1 inhibition enhances cisplatin's therapeutic effect. […] Cell proliferation was assessed using Alamar blue 72 h after drug treatment.

[2] = system: survivin and Cyclin D1; experiment: Western blot of survival and proliferation proteins in cells; type: cell-based, human; conditions: immunoblot
Procedure: FIGS. 36A-36H. […] In cytokine-induced T24 and UC3 cells NFκB-driven luciferase (FIG. 36A), STAT3-driven luciferase (FIG. 36B), and AP-1-driven luciferase (FIG. 36C) were quantified and normalized via Renilla following treatment with the corresponding cell growth-inhibitory IC50 concentrations. T24 cells were treated with APX2009 (8.5 μM) and APX2014 (6.5 μM), and UC3 cells were treated with APX2009 (6.1 μM) and APX2014 (4.6 μM) for 24 h. (*-p<0.05 APX treated vs vehicle, n=4). […] In the panels of FIGS. 36F & 36G, co-expression of survivin and APE1/Ref-1 was analyzed in superficial (FIG. 36F) and invasive human bladder tumors (FIG. 36G) in patients, and found nearly universal overlap of positivity in both in human samples. This was also true in cisplatin-refractory patients from the tissue microarray specimens (FIG. 36H).
Whole cell extracts were prepared using RIPA (radioimmunoprecipitation) buffer containing protein inhibitors (1:100 PMSF, 1:100 orthovanadate and 1:100 protease inhibitor). Total protein concentration was determined via Lowry or BCA assay. 10-50 μg/well of each lysate was separated by SDS-PAGE using a 12% SDS-polyacrylamide gel. Blots were blocked with 5% nonfat dry milk in 1×TBS for 1 h and incubated overnight with primary antibodies to either APE1/Ref-1 (1:1000 dilution, Novus, NB-100-116), survivin (1:1000, Cell Signaling), Cyclin D1 (1:500, Abcam), PARP-1 (1:1000, Cell Signaling) or GAPDH (1:5000, Cell Signaling). After blots were washed three-six times with TBS-Tween, blots were incubated with HRP-conjugated secondary mouse antibodies (1:5000, Pierce). After washing three-six times with TBS-Tween, blots were visualized by enhanced chemiluminescence (West Pico/West Femto, Pierce).
For further confirmation of a decrease in NFκB and STAT3 transcriptional activity, levels of survivin and Cyclin D1 were examined Both survivin and Cyclin D1 are known to be downstream targets of NFκB and STAT3. […] However, unlike APE1/Ref-1, survivin expression was primarily nuclear in both urothelial confined and invasive lesions.

[3] = system: SW780, T24, UC3 cell lines; experiment: Methylene blue cell growth assay, bladder cancer cell panel; type: cell-based, human
Procedure: FIGS. 31A & 31B. Treatment with APE1/Ref-1 inhibitors potently blocks bladder cancer cell proliferation and activated Caspase 3/7. […] The IC50 values for FIG. 31A were determined using the methylene blue assay, n=4. […] T24 and UC3 cells were treated with APX2009 and APX2014 at the IC50 and IC90 and monitored over time for activation of capsase 3/7 by an increase in red fluorescence. Time course graphs are shown in FIG. 31B and representative images at 48 hr are shown in FIG. 32A (described more fully below), n=3-4.
Bladder cancer cell proliferation was inhibited and apoptosis was induced by potent, selective redox inhibitors of APE1/Ref-1.

[4] = system: retinal vascular endothelial cells (RVEC); experiment: MTS proliferation assay of retinal endothelial cells; type: cell-based, mouse
Procedure: Inhibition of endothelial cell proliferation. […] Young adult mouse retinal tissues were dissected out and digested. Cells were plated in 24 well plates and grown to confluence, then seeded to 96 well plates for assay. Three days after seeding, the total number of cells was assayed by MTS measurement (Promega). The proliferation rate was calculated according to manufacturer's instructions. Proliferations of RECs from different groups were compared for statistical significance. APX3330 (RN3-3) blocked REC proliferation indicative of anti-blood vessel formation effects. (FIG. 10)
APX3330 10-100 μM decreased cell proliferation of retinal vascular endothelial cells (RVEC) (FIG. 11). In basal media, APX3330 inhibited REVC cell proliferation at all 4 concentrations tested, 10 μM-57%, 25 μM-93% (p<0.01).

[5] = system: SF767 glioma cells; experiment: Glioma cell migration (scratch) assay; type: cell-based; conditions: 100 μM, 48 h
Procedure: Glioma Cell Migration Assay. APX3330 was tested to determine if it would inhibit the migration ability of SF767 glioma cells. In order to do this, we plated 1.5×10^6 SF767 cells in a 60 mm tissue culture dish and allowed them to attach overnight and form a confluent monolayer. A scratch or wound was made across the plate using a 200 μL pipette tip as described previously (Liang 2007). The cells were then rinsed to remove floating cells and media contain 25, 50, 75 or 100 μM APX3330 or the appropriate vehicle control, DMSO. The drug-containing media was removed after 24 h and fresh media was added Images were taken at three marked places along the scratch at 0, 24, 36 and 48 h after the drug was added. Migration was quantified in ten uniform places for each image taken using Spot Software (Diagnostic Instruments, Sterling Heights, Mich.) to measure the distance in microns between the leading edges of the scratch. Each set of data, a total of thirty for each data point, was normalized to the migration of the vehicle control at 0 h and used to determine standard deviation.

CCC/C(=C\C1=C(OC)C(=O)c2ccccc2C1=O)C(=O)N(CC)CC [APX2009, [(2E)-2-[(3-methoxy-1,4-dioxo-1,4-dihydronaphthalen-2-yl)methylidene]-N,N-diethylpentanamide]]
cellular proliferation when combined with cisplatin [1]: further reduction in cellular proliferation
expression of c-Myc, Bcl-2, Bcl-XL [2]: No change in expression
expression of survivin and Cyclin D1 [2]: significantly down-regulated
fold lower IC50 than APX3330 [3]: 7 fold

CCCCCCCCC/C(=C\C1=C(C)C(=O)C(OC)=C(OC)C1=O)C(=O)O [APX3330]
inhibition at 10 µM ([4]; Mus musculus, Endothelial cell, 10 μM, basal media): 57%
inhibition at 25 µM ([4]; Mus musculus, Endothelial cell, 25 μM, basal media): 93%
retinal endothelial cell proliferation ([4]; about 10-100 μM, with or without bFGF): decreased retinal endothelial cell proliferation
inhibition of migration compared to vehicle control [5]: 4.0 fold
